# Measured values published in ChEMBL document CHEMBL1201862, “PubChem BioAssay data set” (2004).
#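 Results reflect a 48-hour exposure of cells in 96-well plates to compound at five concentrations. GI50: concentration for 50% inhibition of growth.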 Calls of active or inactive are those of the source. No stated cut-off is given here; in the data, active = GI50 up to about 1.1 µM and inactive = higher.
# Columns and labels:
# Assay in all cases: inhibition of tumour cell growth, NCI panel, 48 h
# NCI-H226 = tested on: NCI-H226
# EKVX = tested on: EKVX
# HCC 2998 = tested on: HCC 2998
# SN12C = tested on: SN12C
# SNB-19 = tested on: SNB-19
# A498 = tested on: A498
# TK-10 = tested on: TK-10
# OVCAR-5 = tested on: OVCAR-5
# T47D = tested on: T47D
# SK-MEL-2 = tested on: SK-MEL-2
# OVCAR-3 = tested on: OVCAR-3
# SF-268 = tested on: SF-268
# CCRF-CEM = tested on: CCRF-CEM
# IGROV-1 = tested on: IGROV-1
# SNB-75 = tested on: SNB-75
# LOX IMVI = tested on: LOX IMVI
# HOP-62 = tested on: HOP-62
# MDA-MB-435 = tested on: MDA-MB-435
# U-251 = tested on: U-251
SMILES,GI50 (NCI-H226),GI50 (EKVX),GI50 (HCC 2998),GI50 (SN12C),GI50 (SNB-19),GI50 (A498),GI50 (TK-10),GI50 (OVCAR-5),GI50 (T47D),GI50 (SK-MEL-2),GI50 (OVCAR-3),GI50 (SF-268),GI50 (CCRF-CEM),GI50 (IGROV-1),GI50 (SNB-75),GI50 (LOX IMVI),GI50 (HOP-62),GI50 (MDA-MB-435),GI50 (U-251)
O=C1OC(c2ccc(O)c(-c3ccccc3)c2)(c2ccc(O)c(-c3ccccc3)c2)c2c(Cl)c(Cl)c(Cl)c(Cl)c21,> 100 µM (inactive),> 100 µM (inactive),> 100 µM (inactive),> 100 µM (inactive),> 100 µM (inactive),> 100 µM (inactive),> 100 µM (inactive),> 100 µM (inactive),> 100 µM (inactive),> 100 µM (inactive),> 100 µM (inactive),> 100 µM (inactive),> 100 µM (inactive),> 100 µM (inactive),> 100 µM (inactive),> 100 µM (inactive),> 100 µM (inactive),> 100 µM (inactive),> 100 µM (inactive)
OCCN1CCN(c2nc(N3CCCC3)c3nc(Cl)c(NCc4ccccc4)nc3n2)CC1,17.6 µM (inactive),11.3 µM (inactive),1.93 µM (inactive),10.4 µM (inactive),7.62 µM (inactive),12.5 µM (inactive),6.85 µM (inactive),13.1 µM (inactive),5.32 µM (inactive),6.92 µM (inactive),8.02 µM (inactive),8.85 µM (inactive),3.8 µM (inactive),8.43 µM (inactive),3.27 µM (inactive),5.4 µM (inactive),3.58 µM (inactive),3.98 µM (inactive),5.65 µM (inactive)
Cc1nc(N)c(N2CCNCC2)c(O)n1,> 100 µM (inactive),> 100 µM (inactive),> 100 µM (inactive),> 100 µM (inactive),> 100 µM (inactive),> 100 µM (inactive),> 100 µM (inactive),> 100 µM (inactive),> 100 µM (inactive),> 100 µM (inactive),76.7 µM (inactive),> 100 µM (inactive),> 100 µM (inactive),–,> 100 µM (inactive),> 100 µM (inactive),> 100 µM (inactive),> 100 µM (inactive),> 100 µM (inactive)
Nc1nc(NCC2(CO)CC(CCc3ccccc3)C2)cc(=O)[nH]1 (centres undefined),> 100 µM (inactive),> 100 µM (inactive),> 100 µM (inactive),> 100 µM (inactive),> 100 µM (inactive),> 100 µM (inactive),–,> 100 µM (inactive),27.8 µM (inactive),> 100 µM (inactive),> 100 µM (inactive),> 100 µM (inactive),78.2 µM (inactive),> 100 µM (inactive),> 100 µM (inactive),> 100 µM (inactive),> 100 µM (inactive),> 100 µM (inactive),> 100 µM (inactive)
CCCCON1C[C@H](OC(C)=O)C(OC(C)=O)[C@H](OC(C)=O)C1 (some centres undefined),> 100 µM (inactive),> 100 µM (inactive),> 100 µM (inactive),> 100 µM (inactive),> 100 µM (inactive),> 100 µM (inactive),> 100 µM (inactive),–,> 100 µM (inactive),> 100 µM (inactive),> 100 µM (inactive),> 100 µM (inactive),> 100 µM (inactive),> 100 µM (inactive),> 100 µM (inactive),> 100 µM (inactive),> 100 µM (inactive),> 100 µM (inactive),> 100 µM (inactive)
O=C1OCC2OC(=O)c3cc(O)c(O)c(O)c3-c3c(O)c(O)c(O)c4c3C(=O)OC(C2OC(=O)c2cc(O)c(O)c(O)c2-c2c1cc(O)c(O)c2O)C1OC(=O)c2c-4c(O)c(O)c(O)c2[C@@H]1C(O)C(O)C(O)C(O)CO (some centres undefined),17.6 µM (inactive),19.8 µM (inactive),21.6 µM (inactive),16 µM (inactive),46 µM (inactive),26.4 µM (inactive),–,16 µM (inactive),19.1 µM (inactive),21.6 µM (inactive),28.2 µM (inactive),21.5 µM (inactive),4.75 µM (inactive),20 µM (inactive),< 0.01 µM (active),2.25 µM (inactive),17.9 µM (inactive),4.42 µM (inactive),20.4 µM (inactive)
C=C1CCC2[C@](C)(CCC[C@]2(C)C(=O)O)[C@@H]1CCc1ccoc1 (some centres undefined),20.6 µM (inactive),34.3 µM (inactive),43.8 µM (inactive),33.5 µM (inactive),43.5 µM (inactive),47 µM (inactive),24.2 µM (inactive),90.6 µM (inactive),57.8 µM (inactive),29.4 µM (inactive),24 µM (inactive),50.4 µM (inactive),40.7 µM (inactive),32.4 µM (inactive),67.3 µM (inactive),16.9 µM (inactive),40.6 µM (inactive),41.3 µM (inactive),–
C=CC[C@@]1([C@H](C=C)COCc2ccc(OC)cc2)CC[C@]2(C)OC(C)(C)[C@@H](c3ccccc3)N2C1=S,39.5 µM (inactive),26.2 µM (inactive),44.8 µM (inactive),62.1 µM (inactive),35.2 µM (inactive),71.3 µM (inactive),52.7 µM (inactive),50 µM (inactive),37.3 µM (inactive),23.5 µM (inactive),59.4 µM (inactive),53.5 µM (inactive),46.5 µM (inactive),–,60.1 µM (inactive),40.8 µM (inactive),71.8 µM (inactive),> 100 µM (inactive),34.2 µM (inactive)
CCOc1cccc(-c2cc(O)c3cc4c(cc3n2)OCO4)c1,0.438 µM (active),10.5 µM (inactive),0.239 µM (active),0.191 µM (active),0.321 µM (active),78.9 µM (inactive),0.421 µM (active),–,54.7 µM (inactive),0.191 µM (active),0.182 µM (active),0.466 µM (active),0.084 µM (active),0.548 µM (active),0.0948 µM (active),0.233 µM (active),0.621 µM (active),0.0164 µM (active),0.0619 µM (active)
CN(/N=C(\C(=O)O)c1ccccc1)C1=NCCCCN1,> 100 µM (inactive),> 100 µM (inactive),> 100 µM (inactive),> 100 µM (inactive),–,> 100 µM (inactive),> 100 µM (inactive),> 100 µM (inactive),> 100 µM (inactive),> 100 µM (inactive),> 100 µM (inactive),> 100 µM (inactive),> 100 µM (inactive),94.6 µM (inactive),> 100 µM (inactive),> 100 µM (inactive),> 100 µM (inactive),> 100 µM (inactive),> 100 µM (inactive)
O=C(/C=C/c1ccccc1)CCc1c(O)c2ccccc2oc1=O,> 100 µM (inactive),83 µM (inactive),> 100 µM (inactive),> 100 µM (inactive),> 100 µM (inactive),74.5 µM (inactive),–,> 100 µM (inactive),> 100 µM (inactive),71.9 µM (inactive),49.4 µM (inactive),> 100 µM (inactive),45.4 µM (inactive),> 100 µM (inactive),> 100 µM (inactive),52.5 µM (inactive),–,67.9 µM (inactive),50.9 µM (inactive)
